Consider 34 compounds from ChEMBL document CHEMBL1201862, “PubChem BioAssay data set” (2004).

The target of one assay is Large T antigen (Simian virus 40, UniProt P03070). It is filed as functional, Betapolyomavirus macacae.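 Also: Confirmatory-stage PubChem screen for compounds that inhibit SV40 T antigen.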
The nature of assay [1]: cells. It is filed as functional.
Another assay deals with H4. As to the kind of experiment: Luminescence Cell-Based Dose Response HTS to Identify Activators of 5'UTR Stem-Loop Driven Prion Protein mRNA Translation in H4 Neuroglioblastoma Cells. [Related pubchem assays: 1829 (Project Summary), 1814 (Primary HTS)]. It is filed as functional. The following applies: Homo sapiens.
The nature of assay [2]: Luminescence Cell-Based Dose Response HTS to Identify Activators of Luciferase Translation or Activity in H4 […] Cells. [Related pubchem assays: 1829 (Project Summary), 1814 (Primary HTS)]. The class given is functional.
The target in assay [3] is FAD-linked sulfhydryl oxidase ALR (Homo sapiens, UniProt P55789). Description: inhibitors of human ALR sulfhydryl oxidase, dose response, biochemical, H2O2 detection, luminescence, cherry-pick (AID 493248).
Sequence of FAD-linked sulfhydryl oxidase ALR (P55789 whole entry): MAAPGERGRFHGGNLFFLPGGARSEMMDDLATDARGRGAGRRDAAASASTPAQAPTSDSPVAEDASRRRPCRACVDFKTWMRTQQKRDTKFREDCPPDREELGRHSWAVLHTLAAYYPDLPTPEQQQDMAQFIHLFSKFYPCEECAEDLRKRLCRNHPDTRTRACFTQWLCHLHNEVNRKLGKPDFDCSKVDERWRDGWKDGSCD
Assay [4] addresses T1, Microphthalmia-associated transcription factor (Homo sapiens, UniProt O75030).
T1 sequence (O75030 whole entry): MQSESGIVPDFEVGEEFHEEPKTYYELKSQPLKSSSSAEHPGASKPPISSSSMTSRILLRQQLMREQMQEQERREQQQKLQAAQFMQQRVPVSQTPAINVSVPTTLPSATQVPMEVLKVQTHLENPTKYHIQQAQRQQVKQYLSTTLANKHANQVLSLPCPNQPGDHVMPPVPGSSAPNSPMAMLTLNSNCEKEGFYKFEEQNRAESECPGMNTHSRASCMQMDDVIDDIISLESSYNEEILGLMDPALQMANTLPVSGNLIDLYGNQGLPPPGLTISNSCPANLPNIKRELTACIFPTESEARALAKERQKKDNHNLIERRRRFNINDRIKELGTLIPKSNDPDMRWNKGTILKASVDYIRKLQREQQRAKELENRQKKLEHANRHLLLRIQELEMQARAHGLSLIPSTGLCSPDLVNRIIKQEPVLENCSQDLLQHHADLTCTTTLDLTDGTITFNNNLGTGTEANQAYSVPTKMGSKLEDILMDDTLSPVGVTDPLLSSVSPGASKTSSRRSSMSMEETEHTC
As to the kind of experiment: TRPM1 promoter luciferase signal decrease, dose response, MITF inhibitor project, cell-based, SK-MEL-5, cherry-picked, set 3 (AID 493073).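 Also: SK-MEL-5 melanoma cells with luciferase driven by the MITF target TRPM1 promoter.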 It is filed as functional.

Assay [5] can be described thus: cells. It is filed as functional, cell-based.
Assay [6] is described as follows: cells. The class given is functional, cell-based. This is another data set of the same source.
The target of a further assay is T2, Protein skinhead-1 (Caenorhabditis elegans, UniProt P34707).
T2 sequence (P34707 whole entry): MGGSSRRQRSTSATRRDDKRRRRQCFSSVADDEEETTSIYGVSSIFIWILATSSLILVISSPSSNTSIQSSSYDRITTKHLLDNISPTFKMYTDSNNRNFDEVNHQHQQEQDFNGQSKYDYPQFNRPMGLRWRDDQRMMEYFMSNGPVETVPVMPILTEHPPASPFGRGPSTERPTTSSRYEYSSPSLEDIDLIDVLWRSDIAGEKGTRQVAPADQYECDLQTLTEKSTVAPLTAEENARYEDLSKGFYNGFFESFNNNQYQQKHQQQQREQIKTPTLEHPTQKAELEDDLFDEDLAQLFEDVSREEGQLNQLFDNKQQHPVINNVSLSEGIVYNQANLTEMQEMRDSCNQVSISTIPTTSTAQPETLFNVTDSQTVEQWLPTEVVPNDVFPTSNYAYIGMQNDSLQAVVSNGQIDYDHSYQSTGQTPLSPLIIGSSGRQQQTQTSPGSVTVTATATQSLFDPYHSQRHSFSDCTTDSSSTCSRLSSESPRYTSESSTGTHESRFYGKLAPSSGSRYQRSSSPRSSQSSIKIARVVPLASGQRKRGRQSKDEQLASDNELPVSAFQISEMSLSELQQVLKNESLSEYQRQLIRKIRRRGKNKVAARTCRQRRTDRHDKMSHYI
It is filed as functional.

For assay [7], the target named is T3, Heat shock factor protein 1 (Mus musculus, UniProt P38532).
T3 sequence (P38532 whole entry): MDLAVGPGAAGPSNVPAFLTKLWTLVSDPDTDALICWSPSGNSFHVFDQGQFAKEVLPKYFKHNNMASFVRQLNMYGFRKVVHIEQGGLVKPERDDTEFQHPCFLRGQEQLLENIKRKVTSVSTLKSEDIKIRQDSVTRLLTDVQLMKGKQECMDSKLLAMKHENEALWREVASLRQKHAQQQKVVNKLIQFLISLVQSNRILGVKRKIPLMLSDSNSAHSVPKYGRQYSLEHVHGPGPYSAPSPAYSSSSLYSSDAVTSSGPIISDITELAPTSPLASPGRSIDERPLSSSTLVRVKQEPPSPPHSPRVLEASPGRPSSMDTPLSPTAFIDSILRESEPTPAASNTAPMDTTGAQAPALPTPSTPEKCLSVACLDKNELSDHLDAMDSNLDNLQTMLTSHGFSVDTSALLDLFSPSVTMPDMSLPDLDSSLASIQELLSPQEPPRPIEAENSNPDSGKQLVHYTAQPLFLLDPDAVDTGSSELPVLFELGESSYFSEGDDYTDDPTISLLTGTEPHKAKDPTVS
As to the kind of experiment: inhibition of MG132-induced HSE-luciferase signal, confirmation, cell-based, NIH3T3, luminescence, dose retest (AID 2382).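 Also: NIH3T3 fibroblasts with HSF1-driven luciferase reporter stressed by proteasome inhibitor MG132; luminescence from HSF1-driven luciferase expression after 8 hours of MG132 stress.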 The class given is functional.

The next assay deals with T4, Streptokinase A (Streptococcus pyogenes serotype M1, UniProt P10520).
T4 sequence (P10520 whole entry): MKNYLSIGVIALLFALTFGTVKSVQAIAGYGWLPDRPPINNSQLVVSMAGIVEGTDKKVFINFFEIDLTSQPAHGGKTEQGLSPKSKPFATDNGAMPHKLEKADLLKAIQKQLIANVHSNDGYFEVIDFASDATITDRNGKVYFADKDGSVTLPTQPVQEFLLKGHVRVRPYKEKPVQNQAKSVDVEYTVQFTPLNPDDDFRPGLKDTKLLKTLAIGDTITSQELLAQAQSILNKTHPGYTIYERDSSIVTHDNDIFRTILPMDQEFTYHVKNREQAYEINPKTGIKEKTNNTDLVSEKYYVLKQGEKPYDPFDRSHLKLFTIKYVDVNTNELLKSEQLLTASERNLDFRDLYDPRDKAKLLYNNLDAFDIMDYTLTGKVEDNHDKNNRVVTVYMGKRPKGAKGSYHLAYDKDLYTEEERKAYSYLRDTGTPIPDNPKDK
Description: S. pyogenes streptokinase expression inhibitors, potency, dose response, plasminogen activation absorbance, OD405 (AID 1914).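 Also: secreted streptokinase activity via plasminogen activation per viability signal from cell pellet.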 The class given is functional, Streptococcus pyogenes M1 GAS.

Assay [8] in a line: Luminescence Cell-Based Dose Retest to Confirm Inhibitors of Cancer Stem Cells. [Related pubchem assays (depositor defined):AID2717, AID2721]. It is filed as functional. To be noted: Homo sapiens.
In a further assay the test system is Streptococcus. Description: Group A Streptococcus viability loss, dose response, counter-screen for streptokinase expression inhibitor project, luminescence, BacTiterGlo (AID 1915).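 Also: potency for reduction of bacterial viability or growth.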 The class given is functional, organism-based. For orientation: Counterscreens check selectivity or assay interference.
Assay [9] concerns Streptococcus sp. 'group A'. Description: growth inhibition of control SK(-) GAS strain, dose response, counter-screen for streptokinase expression inhibitor project, luminescence, kanamycin, BacTiterGlo, confirmation (AID 1900). The class given is functional, organism-based.
A short description of assay [10]: HEp-2 cell cytotoxicity, dose response, cytotoxicity control for RSV inhibitor project, HTS (AID 2410). The class given is functional. To be noted: human respiratory syncytial virus.
Assay [11] in a line: control 3'UTR Renilla luciferase suppression, dose response, counter-screen for Shn3 inhibitor project, cell-based, Clone20-Shn3RL, cherry-picked (AID 624133). The class given is functional.
In a further assay the target is Cytochrome P450 2D6 (Homo sapiens, UniProt P10635).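 Also: CYP2D6 member of a cytochrome P450 panel assay.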
Sequence of Cytochrome P450 2D6 (P10635 whole entry): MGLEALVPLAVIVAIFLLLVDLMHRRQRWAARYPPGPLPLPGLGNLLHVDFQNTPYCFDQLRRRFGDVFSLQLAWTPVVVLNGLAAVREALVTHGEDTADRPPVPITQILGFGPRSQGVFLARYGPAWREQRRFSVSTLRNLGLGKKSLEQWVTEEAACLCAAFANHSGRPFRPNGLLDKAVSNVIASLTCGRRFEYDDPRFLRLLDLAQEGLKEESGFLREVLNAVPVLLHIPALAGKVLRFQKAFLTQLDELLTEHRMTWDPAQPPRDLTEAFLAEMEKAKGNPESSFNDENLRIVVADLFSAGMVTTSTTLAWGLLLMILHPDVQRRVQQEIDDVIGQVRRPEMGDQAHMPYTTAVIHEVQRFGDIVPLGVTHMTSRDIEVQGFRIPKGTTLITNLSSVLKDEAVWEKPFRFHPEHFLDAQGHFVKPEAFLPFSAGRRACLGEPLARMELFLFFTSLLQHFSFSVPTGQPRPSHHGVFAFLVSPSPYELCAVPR

Active and inactive are the calls of the source.

Sequence of Large T antigen (P03070 whole entry): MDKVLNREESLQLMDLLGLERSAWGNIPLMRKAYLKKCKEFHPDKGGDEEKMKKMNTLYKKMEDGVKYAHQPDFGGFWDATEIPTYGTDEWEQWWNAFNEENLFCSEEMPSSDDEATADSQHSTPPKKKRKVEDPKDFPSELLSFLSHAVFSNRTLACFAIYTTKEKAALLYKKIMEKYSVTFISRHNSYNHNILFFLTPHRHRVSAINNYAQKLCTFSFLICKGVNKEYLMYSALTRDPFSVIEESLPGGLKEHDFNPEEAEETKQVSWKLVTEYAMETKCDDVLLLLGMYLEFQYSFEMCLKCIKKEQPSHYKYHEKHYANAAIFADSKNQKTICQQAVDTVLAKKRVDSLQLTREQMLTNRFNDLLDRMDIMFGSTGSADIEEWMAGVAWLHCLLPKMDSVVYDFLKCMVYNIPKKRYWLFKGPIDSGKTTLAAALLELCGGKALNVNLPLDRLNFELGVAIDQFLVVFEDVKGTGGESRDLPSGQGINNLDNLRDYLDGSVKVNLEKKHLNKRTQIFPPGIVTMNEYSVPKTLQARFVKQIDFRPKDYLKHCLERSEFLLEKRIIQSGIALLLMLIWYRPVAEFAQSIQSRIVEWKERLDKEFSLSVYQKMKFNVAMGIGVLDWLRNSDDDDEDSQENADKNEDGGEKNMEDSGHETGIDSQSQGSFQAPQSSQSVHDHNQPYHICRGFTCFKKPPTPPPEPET

Broadly, the IC50 is the midpoint of a concentration-inhibition curve. With `COc1cc(C2OCC3C(c4ccc(OC5OC(CO)C(O)C(O)C5O)c(OC)c4)OCC23)ccc1O` (centres undefined), on Large T antigen, the IC50 is 21.3 µM (active).

Turning to `COc1ccc(N2CSC3=C(C#N)C(c4cc(OC)ccc4OC)CC(=O)N3C2)c(OC)c1` (centres undefined), at Large T antigen, the half-inhibitory concentration (IC50) was 63.1 µM (active). In the case of `COC(=O)CN(C#N)c1nc(N(C)C)nc(N(C)C)n1`, the IC50 in “cells [1]” is 9.57 µM (active).

On to `Cc1cc(C=C2C(=O)N(C)C(=S)N(C)C2=O)c(C)n1-c1ccncc1`, for which the IC50 on Large T antigen is 50.2 µM (active). For orientation: EC50 means the midpoint of the concentration-response curve. For the compound `O=C(NCCCN1CCCC1=O)C(=O)Nc1cccc(F)c1`, the EC50 was > 120 µM (not active) in the assay with H4 and 0.233 µM (active) in assay [2]. As for `CCn1nnc(NC(=O)c2sc3ccccc3c2Cl)n1`, in the assay “cells [1]”, the IC50 is 19.2 µM (active). A word on the AC50: it is the concentration giving half of the maximal activity seen. As to `CN(C)c1ccc(CNc2ccc3c(c2)ncn3C)cc1`, in assay [3], the AC50 is 1.78 µM (active). In addition, the IC50 at Large T antigen is 22.1 µM (active).

On to `CCOC(=O)c1cc(-c2csc(COc3ccc(Cl)cc3)n2)on1`, for which the IC50 in the assay “cells [1]” was < 0.1 µM (active). On to `COc1cccc(NC(=O)c2cc3c(=O)n4ccccc4nc3n(CC(C)C)c2=N)c1`, for which the AC50 in assay [4] is 7.02 µM (active). Regarding `Cc1ccc(/C=C(\C#N)c2nn(-c3ccccc3)c(N)c2C#N)cc1`, the EC50 in the assay “cells [5]” and in the assay “cells [6]” was > 350 µM (not active) in each case. Regarding `COc1cc(NS(=O)(=O)c2ccc(Br)cc2)c(OC)cc1NC(=O)c1ccco1`, the IC50 on Protein skinhead-1 is > 100 µM (inactive). Take `CCOc1ccc(-c2nnc(NC(=O)CCCOc3cccc(C)c3)o2)cc1`: the IC50 in the assay “cells [1]” is 5.86 µM (active). On to `Cc1ccc(N2NC(=O)/C(=C/C=C/c3ccco3)C2=O)cc1C`, for which, in “cells [1]”, the IC50 was 13 µM (active). Take `Cc1nc2ccccc2cc1OCc1ccc(Cl)cc1`: the IC50 on Protein skinhead-1 is 57.9 µM (inactive). Turning to `CC(=O)O[C@H]1C[C@@]2(C)[C@@H](C[C@@H](O)[C@H]3[C@@]4(C)CC[C@@H](O)[C@@H](C)[C@@H]4CC[C@@]32C)/C1=C(/CCC=C(C)C)C(=O)O`, the IC50 at Large T antigen is 31.6 µM (active). Regarding `COC(=O)COc1ccc(-c2nn(C)c(=O)c3ccccc23)cc1`, in the assay “cells [1]”, the IC50 was 2.56 µM (active). `O=C(Nc1nc(=O)c2ccccc2s1)c1ccc(F)cc1`: the EC50 is > 120 µM (not active) in the assay on H4 and 0.107 µM (active) in assay [2]. As to `CNc1nc(-c2ccc3c(c2)CCN3C(=O)c2cccc(F)c2)cs1`, the EC50 in the assay with H4 was 4.2 µM (active); in [2], 1.41 µM (active). Turning to `C=CCn1c(N2CCCCCC2)nc2c1c(=O)[nH]c(=O)n2C`, the EC50 in “cells [5]” and in the assay “cells [6]” was > 350 µM (not active) each time. In the case of `COCCNC(=O)C(c1ccc(C)o1)N(Cc1ccc(OC)cc1)C(=O)Cn1nnc2ccccc21` (centres undefined), the IC50 on Protein skinhead-1 is > 100 µM (inactive). On the same count and under the same terms, the result for `Clc1ccc(SCc2cc(-c3ccccc3)on2)cc1` reads > 100 µM (inactive).

In the case of `CCn1nc(C(=O)OCC(=O)NC(C)C)c2ccccc2c1=O`, the EC50 is > 195 µM (not active) in assay [7], > 350 µM (not active) in the assay “cells [5]” and > 350 µM (not active) in the assay “cells [6]”.

The CC50 is the concentration that lowers cell viability or growth by half. Take `CCOC(=O)c1cc(-c2cccs2)nc2c1c(C)nn2-c1ccccn1`: the EC50 at Streptokinase A is 122 µM (active); in the assay with Streptococcus, 21.6 µM (active); in assay [9], 13.1 µM (active). Moreover, the AC50 in assay [8] was 8.5 µM (active). Further, in [10], the cytotoxic concentration (CC50) was 16.4 µM (active).

As to `Cc1cc(C)c2c(N)c(C(=O)Nc3ccccc3F)sc2n1`, the EC50 in “cells [5]” was 131 µM (active); in “cells [6]”, > 350 µM (not active). For `O=C(COc1ccc(-c2ccccc2)cc1)Nc1cccnc1`, the IC50 in the assay “cells [1]” is 4.39 µM (active). In the case of `Brc1ccc(CSc2nnc(-c3ccco3)o2)cc1`, the IC50 on Protein skinhead-1 is 8.76 µM (active). Consider `COc1cccc2cc(C(=O)NCc3ccc(F)cc3)c(=N)oc12`, for which the IC50 in “cells [1]” was > 50 µM (active). With `CC1(C)C(=Cc2ccccc2)C(=O)c2ccccc21`, the IC50 on Protein skinhead-1 is 18 µM (active). On to `OC(c1ccccc1)C(O)C(c1ccccc1)N1CCCCC1` (centres undefined), for which the half-maximal activity concentration (AC50) in assay [11] was 23.1 µM (active). In the case of `CCCS(=O)(=O)NC(=O)C1(C)CCN(C(=O)c2cccc(C)c2C)C1` (centres undefined), the IC50 at Protein skinhead-1 is > 100 µM (inactive). Still for that read-out and setting: the result for `COc1cc(NS(=O)(=O)c2ccc(C)cc2)c2c(c1N)C(=O)c1ccccc1C2=O` reads > 100 µM (inactive). With `COc1cc(/C=N/NC(=O)c2ccc3[nH]cnc3c2)ccc1O`, the IC50 at Large T antigen was 7.38 µM (active). Consider `COc1cc(/C(C)=N/NC(=O)CSc2nnc(C)s2)ccc1O`, for which, at Large T antigen, the IC50 was 24.2 µM (active).

Regarding `O=C(COc1ccc(Cl)cc1Cl)N/N=C/CCc1ccccc1`, the AC50 at Cytochrome P450 2D6 is 3.16 µM (inconclusive). Moreover, the EC50 in the assay “cells [5]” and in “cells [6]” was > 350 µM (not active) throughout.
